Measurements as given in ChEMBL document CHEMBL1201862, “PubChem BioAssay data set” (2004).
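Cultured in 96-well plates, cells were exposed to test compound for 48 hours across five concentrations. GI50: concentration for 50% inhibition of growth.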 Calls of active or inactive are those of the source. Rule as the data show it: active = GI50 up to about 1.1 µM and inactive = higher.

Columns and labels:
Experiment in all cases: DTP human tumour cell line panel, 48 h
786-0 = tested on: 786-0
A498 = tested on: A498
A549 = tested on: A549
ACHN = tested on: ACHN
CAKI-1 = tested on: CAKI-1
CCRF-CEM = tested on: CCRF-CEM
COLO 205 = tested on: COLO 205
DLD-1 = tested on: DLD-1
DMS-114 = tested on: DMS-114
DMS-273 = tested on: DMS-273
EKVX = tested on: EKVX
HCC 2998 = tested on: HCC 2998
HCT-116 = tested on: HCT-116
HCT-15 = tested on: HCT-15
HL-60 = tested on: HL-60
HOP-62 = tested on: HOP-62
HT-29 = tested on: HT-29
IGROV-1 = tested on: IGROV-1
K562 = tested on: K562
KM-20L2 = tested on: KM-20L2
KM12 = tested on: KM12
LOX IMVI = tested on: LOX IMVI
LXFL 529 = tested on: LXFL 529
M14 = tested on: M14
M19-MEL = tested on: M19-MEL
MOLT-4 = tested on: MOLT-4
Malme-3M = tested on: Malme-3M
NCI-H226 = tested on: NCI-H226
NCI-H23 = tested on: NCI-H23
NCI-H460 = tested on: NCI-H460
NCI-H522 = tested on: NCI-H522
OVCAR-3 = tested on: OVCAR-3
OVCAR-5 = tested on: OVCAR-5
OVCAR-8 = tested on: OVCAR-8
RPMI-8226 = tested on: RPMI-8226
RXF 393 = tested on: RXF 393
SF-268 = tested on: SF-268
SF-295 = tested on: SF-295
SF-539 = tested on: SF-539
SK-MEL-28 = tested on: SK-MEL-28
SK-MEL-2 = tested on: SK-MEL-2
SK-MEL-5 = tested on: SK-MEL-5
SK-OV-3 = tested on: SK-OV-3
SN12C = tested on: SN12C
SNB-19 = tested on: SNB-19
SNB-75 = tested on: SNB-75
SNB-78 = tested on: SNB-78
SW-620 = tested on: SW-620
TK-10 = tested on: TK-10
U-251 = tested on: U-251
UACC-257 = tested on: UACC-257
UACC-62 = tested on: UACC-62
UO-31 = tested on: UO-31
HOP-92 = tested on: HOP-92
OVCAR-4 = tested on: OVCAR-4
SR = tested on: SR
XF498 = tested on: XF498

## COc1ccc2c(c1)Oc1cc(O)ccc1[C@H]2c1ccccc1C(=O)NC(C)c1ccccc1 (stereo not given in full)
786-0
  GI50: 17.9 µM (inactive)
A498
  GI50: 16.9 µM (inactive)
A549
  GI50: 13.2 µM (inactive)
ACHN
  GI50: 13.2 µM (inactive)
CAKI-1
  GI50: 17.3 µM (inactive)
CCRF-CEM
  GI50: 16 µM (inactive)
COLO 205
  GI50: 17.1 µM (inactive)
DLD-1
  GI50: 18.2 µM (inactive)
DMS-114
  GI50: 11.5 µM (inactive)
DMS-273
  GI50: 14.5 µM (inactive)
EKVX
  GI50: 16.5 µM (inactive)
HCC 2998
  GI50: 12.8 µM (inactive)
HCT-116
  GI50: 13.6 µM (inactive)
HCT-15
  GI50: 14.6 µM
HL-60
  GI50: 14.4 µM (inactive)
HOP-62
  GI50: 18.8 µM (inactive)
HT-29
  GI50: 19.9 µM (inactive)
IGROV-1
  GI50: 15.1 µM (inactive)
K562
  GI50: 16.8 µM (inactive)
KM-20L2
  GI50: 19.1 µM (inactive)
KM12
  GI50: 14.3 µM (inactive)
LOX IMVI
  GI50: 16.9 µM (inactive)
LXFL 529
  GI50: 15.3 µM (inactive)
M14
  GI50: 13.1 µM (inactive)
M19-MEL
  GI50: 15.7 µM (inactive)
MOLT-4
  GI50: 9.73 µM (inactive)
Malme-3M
  GI50: 20.4 µM (inactive)
NCI-H226
  GI50: 20.7 µM (inactive)
NCI-H23
  GI50: 15.5 µM (inactive)
NCI-H460
  GI50: 13.3 µM (inactive)
NCI-H522
  GI50: 12 µM (inactive)
OVCAR-3
  GI50: 12.3 µM (inactive)
OVCAR-5
  GI50: 15.3 µM (inactive)
OVCAR-8
  GI50: 16 µM (inactive)
RPMI-8226
  GI50: 4.66 µM (inactive)
RXF 393
  GI50: 18.7 µM (inactive)
SF-268
  GI50: 19 µM (inactive)
SF-295
  GI50: 12.4 µM (inactive)
SF-539
  GI50: 16.1 µM (inactive)
SK-MEL-28
  GI50: 17.7 µM (inactive)
SK-MEL-2
  GI50: 21.5 µM (inactive)
SK-MEL-5
  GI50: 15.1 µM (inactive)
SK-OV-3
  GI50: 21 µM (inactive)
SN12C
  GI50: 16.3 µM (inactive)
SNB-19
  GI50: 17.6 µM (inactive)
SNB-75
  GI50: 16.4 µM (inactive)
SNB-78
  GI50: 16.6 µM (inactive)
SW-620
  GI50: 17.1 µM (inactive)
TK-10
  GI50: 24.2 µM (inactive)
U-251
  GI50: 14.4 µM (inactive)
UACC-257
  GI50: 17.4 µM (inactive)
UACC-62
  GI50: 12.1 µM (inactive)
UO-31
  GI50: 10.9 µM (inactive)

## Cc1ccc(NC(=O)CCC/C(CC(=O)c2ccc(Br)cc2)=N/NC(=O)CC#N)cc1
786-0
  GI50: > 100 µM (inactive)
A549
  GI50: > 100 µM (inactive)
ACHN
  GI50: > 100 µM (inactive)
CCRF-CEM
  GI50: > 100 µM (inactive)
COLO 205
  GI50: > 100 µM (inactive)
DLD-1
  GI50: > 100 µM (inactive)
DMS-114
  GI50: > 100 µM (inactive)
EKVX
  GI50: > 100 µM (inactive)
HCC 2998
  GI50: > 100 µM (inactive)
HCT-116
  GI50: > 100 µM (inactive)
HL-60
  GI50: > 100 µM (inactive)
HOP-62
  GI50: > 100 µM (inactive)
HOP-92
  GI50: > 100 µM (inactive)
HT-29
  GI50: > 100 µM (inactive)
IGROV-1
  GI50: > 100 µM (inactive)
KM-20L2
  GI50: > 100 µM (inactive)
KM12
  GI50: > 100 µM (inactive)
LOX IMVI
  GI50: > 100 µM (inactive)
LXFL 529
  GI50: > 100 µM (inactive)
M14
  GI50: > 100 µM (inactive)
M19-MEL
  GI50: > 100 µM (inactive)
MOLT-4
  GI50: > 100 µM (inactive)
Malme-3M
  GI50: > 100 µM (inactive)
NCI-H226
  GI50: > 100 µM (inactive)
NCI-H23
  GI50: > 100 µM (inactive)
NCI-H460
  GI50: > 100 µM (inactive)
OVCAR-3
  GI50: > 100 µM (inactive)
OVCAR-4
  GI50: > 100 µM (inactive)
OVCAR-5
  GI50: > 100 µM (inactive)
OVCAR-8
  GI50: > 100 µM (inactive)
RPMI-8226
  GI50: > 100 µM (inactive)
RXF 393
  GI50: > 100 µM (inactive)
SF-268
  GI50: > 100 µM (inactive)
SF-295
  GI50: > 100 µM (inactive)
SK-MEL-28
  GI50: > 100 µM (inactive)
SK-MEL-2
  GI50: > 100 µM (inactive)
SK-MEL-5
  GI50: > 100 µM (inactive)
SN12C
  GI50: > 100 µM (inactive)
SNB-19
  GI50: > 100 µM (inactive)
SNB-75
  GI50: > 100 µM (inactive)
SNB-78
  GI50: > 100 µM (inactive)
SW-620
  GI50: > 100 µM (inactive)
TK-10
  GI50: > 100 µM (inactive)
U-251
  GI50: > 100 µM (inactive)
UACC-257
  GI50: > 100 µM (inactive)
UACC-62
  GI50: > 100 µM (inactive)
UO-31
  GI50: > 100 µM (inactive)

## O=c1n(CC2CS2)c2ccccc2n1CC1CS1 (stereo not given)
ACHN
  GI50: 45.7 µM (inactive)
CAKI-1
  GI50: 42.9 µM (inactive)
CCRF-CEM
  GI50: 21 µM (inactive)
COLO 205
  GI50: 62.4 µM (inactive)
DMS-114
  GI50: 30.5 µM (inactive)
DMS-273
  GI50: 31.9 µM (inactive)
EKVX
  GI50: > 100 µM (inactive)
HCC 2998
  GI50: 82.8 µM (inactive)
HCT-116
  GI50: 25.1 µM (inactive)
HCT-15
  GI50: 42.7 µM
HL-60
  GI50: 39.2 µM (inactive)
HOP-62
  GI50: 39.5 µM (inactive)
HOP-92
  GI50: 42.3 µM (inactive)
IGROV-1
  GI50: 39.2 µM (inactive)
K562
  GI50: 33.8 µM (inactive)
KM12
  GI50: 35.3 µM (inactive)
LOX IMVI
  GI50: 30.2 µM (inactive)
LXFL 529
  GI50: 31.2 µM (inactive)
M14
  GI50: 35.2 µM (inactive)
M19-MEL
  GI50: 42.8 µM (inactive)
MOLT-4
  GI50: 18.8 µM (inactive)
Malme-3M
  GI50: 18.2 µM (inactive)
NCI-H522
  GI50: 30.8 µM (inactive)
OVCAR-3
  GI50: 43.8 µM (inactive)
OVCAR-4
  GI50: 41.7 µM (inactive)
RPMI-8226
  GI50: 27.2 µM (inactive)
SF-268
  GI50: 57.7 µM (inactive)
SK-MEL-2
  GI50: 28.9 µM (inactive)
SK-OV-3
  GI50: > 100 µM (inactive)
SN12C
  GI50: 87.7 µM (inactive)
SNB-75
  GI50: 65.3 µM (inactive)
SR
  GI50: 45.5 µM (inactive)
SW-620
  GI50: > 10 µM (inactive)
UACC-62
  GI50: 33.3 µM (inactive)
XF498
  GI50: > 100 µM (inactive)
